Like-named read-outs stand apart in the source and are kept apart here.
Experiment: Accelerated stability of flavor components in peroxide mouthrinse, measured by gas chromatography
Assay type: physicochemical
Settings: for % Reduction at day 17, Formula IA / % Reduction at day 31, Formula IA: Formula IA with Glass H polyphosphate radical scavenger; for % Reduction at day 17, Formula IA / % Reduction at day 31, Formula IA / % Reduction at day 17, Formula IB / % Reduction at day 31, Formula IB / % Reduction at day 17, Treated / % Reduction at day 31, Treated / % Reduction at day 17, Untreated / % Reduction at day 31, Untreated: component at 0.005%; for % Reduction at day 17, Formula IB / % Reduction at day 31, Formula IB: no radical scavenger, not treated to remove metals; for % Reduction at day 17, Treated / % Reduction at day 31, Treated: formulation IB treated with polymer supported chelant; for % Reduction at day 17, Treated / % Reduction at day 31, Treated / % Reduction at day 17, Untreated / % Reduction at day 31, Untreated: vs day 0; for % Reduction at day 17, Untreated / % Reduction at day 31, Untreated: formulation IB untreated
Protocol: The stability of the present compositions was assessed by measuring any changes in levels of peroxide, active component (cetylpyridinium chloride) and flavor components under storage conditions at 40° C. and 75% Relative Humidity.
A flavor mix consisting of Ethylbutyrate, Limonene, Decanal, Methylsalicylate, Carvone and Anethole (each flavor component at 0.005%) was added to the compositions. The resulting mouthrinse formulations were packaged in 500 ml PET bottles and placed on accelerated stability test chamber at 40° C. and 75% Relative Humidity conditions. The amount of peroxide in the samples was measured using the method described above and no significant changes were detected. However, radical activity was greater in the untreated sample vs. the treated sample as evidenced in greater degradation of flavor components in the untreated sample. The amount of each flavor component at time 0, 17 and 31 days was evaluated by gas chromatography (GC). Results are summarized in Table 2 below showing % reduction of each component and total flavor at days 17 and 31 from day 0. […] The treatment also […].
Formulation IA with Glass H polyphosphate as radical scavenger was compared with a sample of formulation IB (no radical scavenger) that was not treated to remove metals. […] The resulting mouthrinse formulations were packaged in 500 ml PET bottles and placed on accelerated stability test chamber at 40° C. and 75% Relative Humidity. The amount of each flavor component at time 0, 17 and 31 days were measured by gas chromatography (GC).

% Reduction at day 17, Formula IA (40° C., 75% RH) [%]	% Reduction at day 31, Formula IA (40° C., 75% RH) [%]	% Reduction at day 17, Formula IB (40° C., 75% RH) [%]	% Reduction at day 31, Formula IB (40° C., 75% RH) [%]	% Reduction at day 17, Treated (40° C., 75% RH) [%]	% Reduction at day 31, Treated (40° C., 75% RH) [%]	% Reduction at day 17, Untreated (40° C., 75% RH) [%]	% Reduction at day 31, Untreated (40° C., 75% RH) [%]	Effect of polyphosphate radical scavenger on stability of flavor component	Stability of flavor component in the presence of peroxide	SMILES	Effect of polyphosphate radical scavenger on stability of flavor component (in words, formulation IA vs untreated IB, 40° C., 75% RH)	Stability of flavor component in the presence of peroxide (in words, formulation IB, 40° C., 75% RH)
20	40	80	80	25	75	80	80	increased stability	significant decomposition	CCCCCCCCCC=O [Decanal]		
0	0	20	20	25	25	20	20	increased stability		CCCC(=O)OCC [Ethylbutyrate]		
									relatively stable	COC(=O)c1ccccc1O [Methylsalicylate]		

Second part, the compound before the results:

SMILES	% Reduction at day 17, Formula IA (40° C., 75% RH) [%]	% Reduction at day 31, Formula IA (40° C., 75% RH) [%]	% Reduction at day 17, Formula IB (40° C., 75% RH) [%]	% Reduction at day 31, Formula IB (40° C., 75% RH) [%]	% Reduction at day 17, Treated (40° C., 75% RH) [%]	% Reduction at day 31, Treated (40° C., 75% RH) [%]	% Reduction at day 17, Untreated (40° C., 75% RH) [%]	% Reduction at day 31, Untreated (40° C., 75% RH) [%]	Effect of polyphosphate radical scavenger on stability of flavor component	Stability of flavor component in the presence of peroxide	Effect of polyphosphate radical scavenger on stability of flavor component (in words, formulation IA vs untreated IB, 40° C., 75% RH)	Stability of flavor component in the presence of peroxide (in words, formulation IB, 40° C., 75% RH)
C=C(C)[C@H]1CC=C(C)CC1 [Limonene]	25	25	100	100	75	75	100	100			increased stability	significant decomposition
C=C(C)C1CC=C(C)C(=O)C1 (stereo not drawn) [Carvone]	50	50	20	20	20	20	20	20				
CC=Cc1ccc(OC)cc1 [Anethole]	60	80	100	100	60	80	100	100	increased stability	significant decomposition		
